{"source": "paper PMC9851200", "about": "“Multiparameter phenotypic screening for endogenous TFEB and TFE3 translocation identifies novel chemical series modulating lysosome function” (Autophagy, 2022)", "origin": "cited, not measured here", "parameters_in_all_cases": "method as in original PKIS2 published data", "key": {"[1]": {"target": "T1, kinases (KINOMEscan panel) (Homo sapiens, UniProt O14936)", "T1 sequence (O14936 1-926)": "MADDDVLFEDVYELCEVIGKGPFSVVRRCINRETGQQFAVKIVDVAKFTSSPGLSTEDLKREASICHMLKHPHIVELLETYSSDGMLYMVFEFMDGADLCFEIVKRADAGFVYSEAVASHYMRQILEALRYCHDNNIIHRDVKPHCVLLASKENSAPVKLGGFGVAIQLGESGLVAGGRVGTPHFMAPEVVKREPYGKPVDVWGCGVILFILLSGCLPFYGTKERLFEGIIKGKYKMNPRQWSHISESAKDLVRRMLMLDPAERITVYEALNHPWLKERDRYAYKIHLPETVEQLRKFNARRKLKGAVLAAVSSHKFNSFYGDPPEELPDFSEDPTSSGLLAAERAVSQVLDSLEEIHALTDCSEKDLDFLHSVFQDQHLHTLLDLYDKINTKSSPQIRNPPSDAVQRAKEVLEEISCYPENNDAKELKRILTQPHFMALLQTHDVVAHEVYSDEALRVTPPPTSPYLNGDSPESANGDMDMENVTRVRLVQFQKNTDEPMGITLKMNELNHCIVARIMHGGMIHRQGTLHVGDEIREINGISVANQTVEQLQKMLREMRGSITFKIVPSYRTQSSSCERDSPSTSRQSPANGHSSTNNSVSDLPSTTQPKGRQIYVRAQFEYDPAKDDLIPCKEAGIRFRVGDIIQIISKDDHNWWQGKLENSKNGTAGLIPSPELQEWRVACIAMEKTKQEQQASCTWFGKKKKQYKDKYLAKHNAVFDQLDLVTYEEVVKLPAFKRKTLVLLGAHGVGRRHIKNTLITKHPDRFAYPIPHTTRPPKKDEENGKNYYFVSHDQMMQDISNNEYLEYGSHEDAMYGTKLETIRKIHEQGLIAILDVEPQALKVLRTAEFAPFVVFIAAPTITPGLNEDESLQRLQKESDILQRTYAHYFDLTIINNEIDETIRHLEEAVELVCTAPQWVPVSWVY", "conditions": "kinase CASK; Published KINOMEscan; ref original PKIS2 published data; cited from earlier work"}, "[2]": {"target": "kinases (KINOMEscan panel) (Homo sapiens, UniProt O75716)", "sequence (O75716 whole entry)": "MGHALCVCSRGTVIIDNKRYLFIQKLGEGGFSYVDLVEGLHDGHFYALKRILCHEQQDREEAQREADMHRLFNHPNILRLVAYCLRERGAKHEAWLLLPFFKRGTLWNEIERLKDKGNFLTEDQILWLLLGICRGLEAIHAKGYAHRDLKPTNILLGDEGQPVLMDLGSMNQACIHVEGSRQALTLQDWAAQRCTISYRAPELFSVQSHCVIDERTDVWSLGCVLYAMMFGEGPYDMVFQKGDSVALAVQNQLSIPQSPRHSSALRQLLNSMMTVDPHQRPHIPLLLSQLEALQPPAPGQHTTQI", "conditions": "kinase STK16; Published KINOMEscan; ref original PKIS2 published data; cited from earlier work"}, "[3]": {"target": "kinases (KINOMEscan panel) (Homo sapiens, UniProt Q9P1W9)", "sequence (Q9P1W9 whole entry)": "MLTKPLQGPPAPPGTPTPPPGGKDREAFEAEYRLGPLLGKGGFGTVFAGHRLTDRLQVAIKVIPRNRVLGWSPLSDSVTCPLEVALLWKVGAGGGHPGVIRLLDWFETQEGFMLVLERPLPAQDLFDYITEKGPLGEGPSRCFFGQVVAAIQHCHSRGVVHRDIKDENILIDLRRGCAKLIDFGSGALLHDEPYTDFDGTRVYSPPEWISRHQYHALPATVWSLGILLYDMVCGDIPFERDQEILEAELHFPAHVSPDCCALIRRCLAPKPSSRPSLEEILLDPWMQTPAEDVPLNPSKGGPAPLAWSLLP", "conditions": "PIM2; Published KINOMEscan; ref original PKIS2 published data; cited from earlier work"}, "[4]": {"target": "kinases (KINOMEscan panel) (Homo sapiens, UniProt Q15303)", "sequence (Q15303 26-1308)": "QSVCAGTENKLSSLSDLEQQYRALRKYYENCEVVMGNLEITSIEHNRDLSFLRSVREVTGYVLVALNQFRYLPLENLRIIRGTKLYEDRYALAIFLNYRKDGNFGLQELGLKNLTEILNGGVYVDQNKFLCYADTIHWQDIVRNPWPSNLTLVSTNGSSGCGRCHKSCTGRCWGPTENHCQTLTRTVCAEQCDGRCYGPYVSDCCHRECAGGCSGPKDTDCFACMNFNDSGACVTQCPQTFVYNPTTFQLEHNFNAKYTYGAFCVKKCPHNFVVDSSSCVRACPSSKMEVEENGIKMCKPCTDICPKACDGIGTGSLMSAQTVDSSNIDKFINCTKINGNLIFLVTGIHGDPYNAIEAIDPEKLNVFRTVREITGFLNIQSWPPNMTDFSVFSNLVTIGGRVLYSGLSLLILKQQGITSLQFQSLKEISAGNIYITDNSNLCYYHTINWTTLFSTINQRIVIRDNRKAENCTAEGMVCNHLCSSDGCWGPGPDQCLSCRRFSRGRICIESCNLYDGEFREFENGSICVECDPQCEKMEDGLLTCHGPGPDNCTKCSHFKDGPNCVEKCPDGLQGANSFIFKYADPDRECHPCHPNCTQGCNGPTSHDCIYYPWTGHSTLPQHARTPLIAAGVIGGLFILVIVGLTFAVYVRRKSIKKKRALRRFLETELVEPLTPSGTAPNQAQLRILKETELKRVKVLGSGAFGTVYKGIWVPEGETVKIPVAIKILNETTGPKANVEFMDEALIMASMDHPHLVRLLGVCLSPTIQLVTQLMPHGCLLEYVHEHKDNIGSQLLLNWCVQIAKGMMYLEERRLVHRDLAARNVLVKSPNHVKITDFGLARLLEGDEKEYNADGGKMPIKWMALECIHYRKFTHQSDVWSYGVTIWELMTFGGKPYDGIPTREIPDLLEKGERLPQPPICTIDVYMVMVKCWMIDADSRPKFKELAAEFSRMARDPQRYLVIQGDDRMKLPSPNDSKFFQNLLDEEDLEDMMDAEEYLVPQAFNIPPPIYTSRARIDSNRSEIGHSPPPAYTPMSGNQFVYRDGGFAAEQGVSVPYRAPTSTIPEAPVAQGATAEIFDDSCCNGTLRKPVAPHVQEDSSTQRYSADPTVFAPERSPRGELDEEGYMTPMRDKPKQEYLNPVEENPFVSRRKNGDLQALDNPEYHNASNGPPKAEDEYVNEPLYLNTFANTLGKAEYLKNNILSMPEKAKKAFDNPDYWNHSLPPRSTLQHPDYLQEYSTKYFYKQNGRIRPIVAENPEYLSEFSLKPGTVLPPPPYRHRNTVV", "conditions": "kinase ERBB4; Published KINOMEscan; ref original PKIS2 published data; cited from earlier work"}, "[5]": {"target": "kinases (KINOMEscan panel) (Homo sapiens, UniProt O75460)", "sequence (O75460 19-977)": "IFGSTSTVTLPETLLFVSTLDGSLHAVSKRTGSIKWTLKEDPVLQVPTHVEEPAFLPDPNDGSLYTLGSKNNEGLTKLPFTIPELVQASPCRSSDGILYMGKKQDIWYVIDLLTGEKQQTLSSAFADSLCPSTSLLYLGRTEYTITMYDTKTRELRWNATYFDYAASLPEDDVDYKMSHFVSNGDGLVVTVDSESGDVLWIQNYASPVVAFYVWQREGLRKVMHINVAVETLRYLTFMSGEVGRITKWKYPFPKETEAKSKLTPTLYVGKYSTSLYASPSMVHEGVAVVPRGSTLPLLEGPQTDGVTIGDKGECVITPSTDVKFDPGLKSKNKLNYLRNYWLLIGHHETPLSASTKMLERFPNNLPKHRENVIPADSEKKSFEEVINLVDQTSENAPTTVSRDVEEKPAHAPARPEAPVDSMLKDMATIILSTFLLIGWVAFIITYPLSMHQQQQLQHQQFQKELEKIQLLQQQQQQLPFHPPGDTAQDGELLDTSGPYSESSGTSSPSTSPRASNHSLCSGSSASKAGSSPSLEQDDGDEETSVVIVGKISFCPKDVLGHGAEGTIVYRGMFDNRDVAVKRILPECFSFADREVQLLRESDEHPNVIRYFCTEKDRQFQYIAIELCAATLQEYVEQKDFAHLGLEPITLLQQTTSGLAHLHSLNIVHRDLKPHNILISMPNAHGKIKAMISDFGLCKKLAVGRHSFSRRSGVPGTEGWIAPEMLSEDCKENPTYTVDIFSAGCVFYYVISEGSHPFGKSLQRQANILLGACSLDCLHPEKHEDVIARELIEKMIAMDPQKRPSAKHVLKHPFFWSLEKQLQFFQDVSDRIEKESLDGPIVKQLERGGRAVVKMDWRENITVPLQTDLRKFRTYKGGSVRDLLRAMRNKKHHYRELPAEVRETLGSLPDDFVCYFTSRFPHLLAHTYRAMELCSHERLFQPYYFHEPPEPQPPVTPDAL", "conditions": "Published KINOMEscan; ref original PKIS2 published data; cited from earlier work"}, "[6]": {"target": "T2, kinases (KINOMEscan panel) (Homo sapiens, UniProt Q04771)", "T2 sequence (Q04771 21-509)": "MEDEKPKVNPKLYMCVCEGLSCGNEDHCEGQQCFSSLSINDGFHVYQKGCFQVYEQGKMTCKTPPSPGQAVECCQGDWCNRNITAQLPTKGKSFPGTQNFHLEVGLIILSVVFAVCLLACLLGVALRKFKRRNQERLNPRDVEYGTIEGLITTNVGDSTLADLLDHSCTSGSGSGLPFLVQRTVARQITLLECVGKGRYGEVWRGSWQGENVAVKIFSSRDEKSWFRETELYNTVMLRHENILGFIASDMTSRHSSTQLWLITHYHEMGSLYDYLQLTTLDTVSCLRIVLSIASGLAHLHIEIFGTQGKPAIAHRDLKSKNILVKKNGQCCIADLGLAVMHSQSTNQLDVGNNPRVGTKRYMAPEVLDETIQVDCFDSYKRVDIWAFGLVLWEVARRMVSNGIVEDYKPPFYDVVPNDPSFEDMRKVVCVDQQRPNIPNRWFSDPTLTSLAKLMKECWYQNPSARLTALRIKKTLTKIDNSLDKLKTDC", "conditions": "ACVR1; Published KINOMEscan; ref original PKIS2 published data; cited from earlier work"}, "[7]": {"target": "kinases (KINOMEscan panel) (Homo sapiens, UniProt P54764)", "sequence (P54764 20-986)": "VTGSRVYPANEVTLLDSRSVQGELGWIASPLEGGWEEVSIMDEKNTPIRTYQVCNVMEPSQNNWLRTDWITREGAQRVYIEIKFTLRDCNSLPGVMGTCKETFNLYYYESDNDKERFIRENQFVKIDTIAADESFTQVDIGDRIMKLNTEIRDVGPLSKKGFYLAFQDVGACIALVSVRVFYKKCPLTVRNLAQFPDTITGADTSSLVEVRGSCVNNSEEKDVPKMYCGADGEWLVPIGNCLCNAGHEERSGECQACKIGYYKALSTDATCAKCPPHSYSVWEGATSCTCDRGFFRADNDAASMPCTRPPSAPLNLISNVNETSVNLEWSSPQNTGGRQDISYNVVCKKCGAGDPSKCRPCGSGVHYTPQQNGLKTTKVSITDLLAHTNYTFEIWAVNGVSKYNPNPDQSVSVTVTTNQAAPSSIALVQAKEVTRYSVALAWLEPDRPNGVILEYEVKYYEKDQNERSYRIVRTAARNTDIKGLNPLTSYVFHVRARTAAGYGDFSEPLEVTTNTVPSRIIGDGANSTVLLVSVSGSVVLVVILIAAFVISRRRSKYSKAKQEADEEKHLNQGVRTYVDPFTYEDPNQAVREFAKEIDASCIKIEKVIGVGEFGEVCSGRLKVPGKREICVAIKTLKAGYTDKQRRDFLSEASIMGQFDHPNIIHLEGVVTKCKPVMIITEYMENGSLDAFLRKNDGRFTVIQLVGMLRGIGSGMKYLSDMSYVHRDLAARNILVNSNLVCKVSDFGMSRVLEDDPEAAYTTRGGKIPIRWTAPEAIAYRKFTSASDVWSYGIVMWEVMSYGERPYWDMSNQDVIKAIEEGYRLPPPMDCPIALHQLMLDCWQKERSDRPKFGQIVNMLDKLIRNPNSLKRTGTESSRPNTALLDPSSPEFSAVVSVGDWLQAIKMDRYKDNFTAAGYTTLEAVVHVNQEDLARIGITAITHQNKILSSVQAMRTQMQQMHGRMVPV", "conditions": "EPHA4; Published KINOMEscan; ref original PKIS2 published data; cited from earlier work"}, "[8]": {"target": "kinases (KINOMEscan panel) (Homo sapiens, UniProt P0C1S8)", "sequence (P0C1S8 whole entry)": "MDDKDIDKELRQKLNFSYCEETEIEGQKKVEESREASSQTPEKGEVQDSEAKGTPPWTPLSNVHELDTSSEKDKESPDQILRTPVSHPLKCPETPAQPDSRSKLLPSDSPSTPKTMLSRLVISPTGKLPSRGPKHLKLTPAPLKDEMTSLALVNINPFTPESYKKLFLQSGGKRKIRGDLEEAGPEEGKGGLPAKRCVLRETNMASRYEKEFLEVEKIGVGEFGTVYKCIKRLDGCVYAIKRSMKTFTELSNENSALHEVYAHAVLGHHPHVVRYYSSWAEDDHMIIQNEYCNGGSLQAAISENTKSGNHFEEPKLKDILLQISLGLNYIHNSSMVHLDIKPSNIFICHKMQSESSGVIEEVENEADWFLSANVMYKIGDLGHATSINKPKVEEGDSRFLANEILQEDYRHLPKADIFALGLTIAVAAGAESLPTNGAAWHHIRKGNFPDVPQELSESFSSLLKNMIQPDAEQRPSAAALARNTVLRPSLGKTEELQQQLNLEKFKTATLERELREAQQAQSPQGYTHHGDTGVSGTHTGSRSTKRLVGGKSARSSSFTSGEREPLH", "conditions": "WEE2; Published KINOMEscan; ref original PKIS2 published data; cited from earlier work"}, "[9]": {"target": "kinases (KINOMEscan panel) (Homo sapiens, UniProt O43293)", "sequence (O43293 whole entry)": "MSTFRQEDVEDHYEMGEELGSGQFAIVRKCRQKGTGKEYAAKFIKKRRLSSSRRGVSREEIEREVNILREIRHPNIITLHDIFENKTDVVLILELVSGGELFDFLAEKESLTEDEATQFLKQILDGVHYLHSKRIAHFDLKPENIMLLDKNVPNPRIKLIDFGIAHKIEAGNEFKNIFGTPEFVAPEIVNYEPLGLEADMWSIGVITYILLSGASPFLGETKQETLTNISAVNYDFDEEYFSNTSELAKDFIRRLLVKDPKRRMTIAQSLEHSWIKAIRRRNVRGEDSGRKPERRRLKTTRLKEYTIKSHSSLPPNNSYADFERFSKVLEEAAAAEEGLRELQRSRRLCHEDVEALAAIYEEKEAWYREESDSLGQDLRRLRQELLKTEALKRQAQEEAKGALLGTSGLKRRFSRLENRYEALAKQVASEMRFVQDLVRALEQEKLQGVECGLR", "conditions": "DAPK3; Published KINOMEscan; ref original PKIS2 published data; cited from earlier work"}}, "data": [{"smiles": "Cc1cccc(-c2nc(Nc3ccncc3)c3ccccc3n2)n1", "note": "[NK215]", "values": [{"measurement": "KINOMEscan CASK", "setting": "[1]", "value": 0}, {"measurement": "KINOMEscan STK16", "setting": "[2]", "value": 7}, {"measurement": "KINOMEscan PIM2", "setting": "[3]", "value": 18}, {"measurement": "KINOMEscan ERBB4", "setting": "[4]", "value": 0}, {"measurement": "KINOMEscan ERN1", "setting": "[5]", "value": 0}, {"measurement": "KINOMEscan ACVR1", "setting": "[6]", "value": 15}, {"measurement": "KINOMEscan EPHA4", "setting": "[7]", "value": 18}, {"measurement": "KINOMEscan WEE2", "setting": "[8]", "value": 8}, {"measurement": "KINOMEscan DAPK3", "setting": "[9]", "value": 17}]}]}
